# What was measured:
# Experiment in all cases: relative viability (nuclei count vs DMSO), 5 days (fraction); higher = more cells survive
# [1] = compound: CC1(C)CCC(CN2CCN(c3ccc(C(=O)NS(=O)(=O)c4ccc(NCC5CCOCC5)c([N+](=O)[O-])c4)c(Oc4cnc5[nH]ccc5c4)c3)CC2)=C(c2ccc(Cl)cc2)C1 [Venetoclax] + CS(=O)(=O)CCNCc1ccc(-c2ccc3ncnc(Nc4ccc(OCc5cccc(F)c5)c(Cl)c4)c3c2)o1 [Lapatinib] (partner 2 µM)
# Summary of the method: (§1)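 After 5 days of treatment, lung cancer cells in 1536-well plates were fixed and stained in a single step (final 0.05% Triton X-100, 1% formaldehyde, 1 ug/ml Hoechst) and their nuclei counted on 4× images. Treatment had been applied by pin tool the day after seeding as one drug alone or as a fixed anchor-drug dose with five library-drug doses (not always all listed) in √10 steps. Relative viability is the nuclei count of treated wells divided by that of vehicle wells, and values are medians of duplicate plates.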
# [2] = compound: CC1(C)CCC(CN2CCN(c3ccc(C(=O)NS(=O)(=O)c4ccc(NCC5CCOCC5)c([N+](=O)[O-])c4)c(Oc4cnc5[nH]ccc5c4)c3)CC2)=C(c2ccc(Cl)cc2)C1 [Venetoclax] + O=C(c1cc(Cc2n[nH]c(=O)c3ccccc23)ccc1F)N1CCN(C(=O)C2CC2)CC1 [Olaparib] (partner 8 µM)
# Summary of the method: as §1
# [3] = compound: Cn1cnc2c(F)c(Nc3ccc(Br)cc3Cl)c(C(=O)NOCCO)cc21 [Selumetinib] + Cc1cc(Nc2cc(N3CCN(C)CC3)nc(Sc3ccc(NC(=O)C4CC4)cc3)n2)n[nH]1 [Tozasertib] (partner 0.1 µM)
# Summary of the method: as §1
# [4] = compound: Cn1cnc2c(F)c(Nc3ccc(Br)cc3Cl)c(C(=O)NOCCO)cc21 [Selumetinib] + Nc1ncn([C@H]2C[C@H](O)[C@@H](CO)O2)c(=O)n1 [Decitabine] (partner 2 µM)
# Summary of the method: as §1
Cell Line,relative viability ([1]; first compound 0.01 µM),relative viability ([1]; first compound 0.03162 µM),relative viability ([1]; first compound 0.1 µM),relative viability ([1]; first compound 0.3162 µM),relative viability ([1]; first compound 1 µM),relative viability ([2]; first compound 0.01 µM),relative viability ([2]; first compound 0.03162 µM),relative viability ([2]; first compound 0.1 µM),relative viability ([2]; first compound 0.3162 µM),relative viability ([2]; first compound 1 µM),relative viability ([3]; first compound 0.02 µM),relative viability ([3]; first compound 0.06325 µM),relative viability ([3]; first compound 0.2 µM),relative viability ([3]; first compound 0.6325 µM),relative viability ([4]; first compound 0.02 µM),relative viability ([4]; first compound 0.06325 µM),relative viability ([4]; first compound 0.2 µM),relative viability ([4]; first compound 0.6325 µM)
NCI-H23,1.11,1.14,0.942,1.12,0.984,0.311,0.26,0.367,0.376,0.304,0.36,0.301,0.224,0.31,0.324,0.268,0.319,0.302
NCI-H322M,0.659,0.601,0.552,0.533,0.57,0.738,0.799,0.76,0.764,0.785,0.391,0.418,0.369,0.366,0.722,0.71,0.598,0.548
NCI-H358,0.502,0.452,0.412,0.499,0.468,0.567,0.651,0.575,0.773,0.579,0.128,0.0891,0.0985,0.0883,0.194,0.181,0.193,0.158
NCI-H460,0.971,0.974,0.994,0.935,0.866,0.39,0.414,0.359,0.44,0.398,0.379,0.283,0.246,0.152,0.432,0.484,0.402,0.326
NCI-H520,0.86,0.979,0.76,0.903,0.732,0.388,0.315,–,0.327,0.387,0.477,0.435,0.461,0.52,0.551,0.493,0.523,0.606
NCI-H596,1.09,1.24,0.971,1.15,1.11,0.764,0.709,0.711,0.696,0.759,0.883,0.899,0.668,0.648,0.927,0.936,0.922,0.83
NCI-H647,1.14,1.15,–,1.21,0.978,0.521,0.698,0.424,0.564,0.535,0.409,0.168,0.319,0.358,0.354,0.351,0.621,0.447
NCI-H650,0.726,0.86,–,0.963,0.882,0.356,0.425,0.375,0.383,0.365,0.85,0.692,0.864,0.533,0.334,0.283,0.342,0.376
NCI-H661,0.519,0.615,0.491,0.5,0.487,0.745,0.789,0.715,0.74,0.708,0.381,0.366,0.386,0.374,0.572,0.492,0.546,0.51
NCI-H727,0.904,1,0.857,0.791,0.753,0.758,0.801,0.803,0.836,0.641,0.403,0.357,0.338,0.294,0.762,0.578,0.606,0.583
NCI-H838,0.977,1.07,0.962,0.978,0.891,0.784,0.758,0.824,0.776,0.764,0.261,0.226,0.229,0.245,0.446,0.421,0.45,0.448
NCI-H1355,1.02,1.02,0.968,0.93,0.993,0.772,0.815,0.774,0.734,0.757,0.536,0.567,0.445,0.414,0.385,0.357,0.377,0.329
NCI-H1395,1.37,1.09,0.958,1.09,0.964,0.451,0.484,0.447,0.473,0.427,0.714,0.702,0.718,0.748,0.698,0.712,0.675,0.639
NCI-H1437,0.766,0.873,0.758,0.742,0.703,0.607,0.616,0.624,0.615,0.601,0.319,0.359,0.274,0.2,0.614,0.537,0.464,0.544
NCI-H1650,0.764,0.873,–,1.01,0.81,0.763,0.733,0.994,0.592,0.745,0.332,0.394,0.312,0.308,0.392,0.353,0.424,0.39
NCI-H1651,0.92,0.885,0.747,0.905,0.764,0.157,0.204,0.171,0.171,0.188,0.644,0.643,0.591,0.537,0.626,0.531,0.644,0.701
NCI-H1666,0.536,0.664,0.519,0.624,0.515,0.77,0.741,0.711,0.759,0.62,0.589,0.489,0.528,0.554,0.758,0.682,0.689,0.71
NCI-H1734,1.1,0.993,0.925,0.921,1.07,0.598,0.656,0.662,0.634,0.634,0.244,0.251,0.234,0.227,0.53,0.479,0.502,0.528

# Reference: the supplement of paper PMC10307832
